Measurements taken from patent publication US11046680B1, “Heteroaryl-substituted triazoles as APJ receptor agonists” (priority 2016, dated 2021).

Target: human APJ receptor (Homo sapiens (Human), UniProt P35414)
Assay: biochemical
Type: biochemical
Settings: [35S]GTPγS binding, CHO membranes expressing human APJ receptor; read-out: Activity hAPJ SPA EC50 IP
How it was run: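 Membranes of a stable CHO line carrying human APJ (pFLAG-CMV-3) were used in a GTPγS binding format; buffer GDP, MgCl2 and NaCl were optimized, and plates were read after 90 min at RT.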

human APJ receptor, sequence (P35414 whole entry): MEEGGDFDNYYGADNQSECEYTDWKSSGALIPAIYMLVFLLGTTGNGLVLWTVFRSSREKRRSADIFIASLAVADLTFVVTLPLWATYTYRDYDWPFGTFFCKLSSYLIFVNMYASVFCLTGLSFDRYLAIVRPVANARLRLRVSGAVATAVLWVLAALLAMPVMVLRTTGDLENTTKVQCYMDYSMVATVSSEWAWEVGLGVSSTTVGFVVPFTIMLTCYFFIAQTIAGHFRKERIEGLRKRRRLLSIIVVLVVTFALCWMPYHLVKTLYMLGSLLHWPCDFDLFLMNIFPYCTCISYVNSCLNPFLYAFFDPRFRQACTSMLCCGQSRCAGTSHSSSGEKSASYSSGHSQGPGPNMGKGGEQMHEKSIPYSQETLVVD

Row | Molecule | EC50 [nM]
1 | COc1cccc(OC)c1-n1c(NS(=O)(=O)[C@@H](C)[C@H](C)c2ncc(Cl)cn2)nnc1-c1cc2n(n1)CCC2 [Example 221.0, (2S,3R)-3-(5-chloro-2-pyrimidinyl)-N-(5-(5,6-dihydro-4H-pyrrolo[1,2-b]pyrazol-2-yl)-4-(2,6-dimethoxyphenyl)-4H-1,2,4-triazol-3-yl)-2-butanesulfonamide] | 0.32
2 | CCn1ccc(-c2nnc(NS(=O)(=O)[C@@H](C)[C@H](O)c3ncc(C)cn3)n2-c2c(OC)cccc2OC)n1 [Example 388.0, (1R,2S)-N-(4-(2,6-Dimethoxyphenyl)-5-(1-ethyl-1H-pyrazol-3-yl)-4H-1,2,4-triazol-3-yl)-1-hydroxy-1-(5-methylpyrimidin-2-yl)propane-2-sulfonamide] | 0.37
3 | COc1cccc(OC)c1-n1c(NS(=O)(=O)[C@@H](C)[C@H](OC)c2ncc(C)cn2)nnc1-c1cnn2ccc(C)cc12 [Example 416.0, (1R,2S)-N-(4-(2,6-dimethoxyphenyl)-5-(5-methylpyrazolo[1,5-a]pyridin-3-yl)-4H-1,2,4-triazol-3-yl)-1-methoxy-1-(5-methylpyrimidin-2-yl)propane-2-sulfonamide] | 8.4
4 | COc1ncnc(OC)c1-n1c(NS(=O)(=O)[C@@H](C)[C@H](OC)c2ncc(C)cn2)nnc1-c1nc(C2CC2)cs1 [Example 4.0, (1R,2S)-N-(5-(4-cyclopropylthiazol-2-yl)-4-(4,6-dimethoxypyrimidin-5-yl)-4H-1,2,4-triazol-3-yl)-1-methoxy-1-(5-methylpyrimidin-2-yl)propane-2-sulfonamide] | 0.92
5 | COc1ccccc1-n1c(NS(=O)(=O)[C@@H](C)[C@H](C)c2ncc(F)cn2)nnc1-c1ccn(C)n1 [Example 269.0, (2S,3R)-3-(5-fluoro-2-pyrimidinyl)-N-(4-(2-methoxyphenyl)-5-(1-methyl-1H-pyrazol-3-yl)-4H-1,2,4-triazol-3-yl)-2-butanesulfonamide] | 8.7
6 | COc1cccc(OC)c1-n1c(NS(=O)(=O)[C@H](C)Cc2ncc(F)cn2)nnc1-c1ccncn1 (single isomer, unassigned) [Example 39.0, (R)-N-(4-(2,6-dimethoxyphenyl)-5-(pyrimidin-4-yl)-4H-1,2,4-triazol-3-yl)-1-(5-fluoropyrimidin-2-yl)propane-2-sulfonamide or (R)-N-(4-(2,6-dimethoxyphenyl)-5-(pyrimidin-4-yl)-4H-1,2,4-triazol-3-yl)-1-(5-fluoropyrimidin-2-yl)propane-2-sulfonamide] | 230
7 | COc1ncnc(OC)c1-n1c(NS(=O)(=O)[C@@H](C)[C@H](C)c2ncc(C)cn2)nnc1-c1noc2ccccc12 [Example 88.0, (2S,3R)-N-(5-(benzo[d]isoxazol-3-yl)-4-(4,6-dimethoxypyrimidin-5-yl)-4H-1,2,4-triazol-3-yl)-3-(5-methylpyrimidin-2-yl)butane-2-sulfonamide] | 50
8 | COc1cccc(OC)c1-n1c(NS(=O)(=O)[C@@H](C)[C@H](C)c2ncc(F)cn2)nnc1-c1cc(C)[nH]n1 [Example 268.0, (2S,3R)-N-(4-(2,6-dimethoxyphenyl)-5-(5-methyl-1H-pyrazol-3-yl)-4H-1,2,4-triazol-3-yl)-3-(5-fluoro-2-pyrimidinyl)-2-butanesulfonamide] | 0.68
9 | COc1ncnc(OC)c1-n1c(NS(=O)(=O)[C@@H](C)[C@@H](OC(C)C)c2ncc(Cl)cn2)nnc1-c1ccn(C)n1 [Example 456.0, (1S,2S)-1-(5-chloro-2-pyrimidinyl)-N-(4-(4,6-dimethoxy-5-pyrimidinyl)-5-(1-methyl-1H-pyrazol-3-yl)-4H-1,2,4-triazol-3-yl)-1-(1-methylethoxy)-2-propanesulfonamide] | 0.6
10 | (2R,3R)-3-(5-Cyanopyrimidin-2-yl)-N-(4-(2,6-dimethoxyphenyl)-5-(4-methylthiazol-2-yl)-4H-1,2,4-triazol-3-yl)-3-fluorobutane-2-sulfonamide and (2S,3S)-3-(5-cyanopyrimidin-2-yl)-N-(4-(2,6-dimethoxyphenyl)-5-(4-methylthiazol-2-yl)-4H-1,2,4-triazol-3-yl)-3-fluorobutane-2-sulfonamide [Example 321.0] | 1.6
11 | COc1cccc(OC)c1-n1c(NS(=O)(=O)[C@@H](C)[C@H](OC)c2ncc(Cl)cn2)nnc1-c1noc2ccccc12 [Example 83.0, (1R,2S)-N-(5-(benzo[d]isoxazol-3-yl)-4-(2,6-dimethoxyphenyl)-4H-1,2,4-triazol-3-yl)-1-(5-chloropyrimidin-2-yl)-1-methoxypropane-2-sulfonamide] | 1.9
12 | (R)-N-(4-(2,6-dimethoxyphenyl)-5-(pyrimidin-5-yl)-4H-1,2,4-triazol-3-yl)-1-(5-fluoropyrimidin-2-yl)propane-2-sulfonamide and (S)-N-(4-(2,6-dimethoxyphenyl)-5-(pyrimidin-5-yl)-4H-1,2,4-triazol-3-yl)-1-(5-fluoropyrimidin-2-yl)propane-2-sulfonamide [Example 48.0] | 150
13 | C=CCO[C@@H](c1ncc(F)cn1)[C@@H](C)S(=O)(=O)Nc1nnc(-c2nc(C)cs2)n1-c1c(OC)cccc1OC (single isomer, unassigned) [Example 168.0, (1S,2R)-1-(Allyloxy)-N-(4-(2,6-dimethoxyphenyl)-5-(4-methylthiazol-2-yl)-4H-1,2,4-triazol-3-yl)-1-(5-fluoropyrimidin-2-yl)propane-2-sulfonamide or (1R,2S)-1-(allyloxy)-N-(4-(2,6-dimethoxyphenyl)-5-(4-methylthiazol-2-yl)-4H-1,2,4-triazol-3-yl)-1-(5-fluoropyrimidin-2-yl)propane-2-sulfonamide] | 30
14 | CO[C@H](c1ncc(Cl)cn1)[C@H](C)S(=O)(=O)Nc1nnc(-c2nn(C)c3c2CCCC3)n1C1CC1 [Example 514.0, (1R,2S)-1-(5-chloropyrimidin-2-yl)-N-(4-cyclopropyl-5-(1-methyl-4,5,6,7-tetrahydro-1H-indazol-3-yl)-4H-1,2,4-triazol-3-yl)-1-methoxypropane-2-sulfonamide] | 19
15 | COc1cccc(OC)c1-n1c(NS(=O)(=O)[C@@H](C)[C@@H](OC(C)C)c2ncc(C)cn2)nnc1-c1ccn(C)n1 [Example 355.0, (1S,2S)-N-(4-(2,6-dimethoxyphenyl)-5-(1-methyl-1H-pyrazol-3-yl)-4H-1,2,4-triazol-3-yl)-1-isopropoxy-1-(5-methylpyrimidin-2-yl)propane-2-sulfonamide] | 0.47
16 | COc1cccc(OC)c1-n1c(NS(=O)(=O)CCc2ccc(Cl)cc2)nnc1-c1cscn1 [Example 91.0, 2-(4-chlorophenyl)-N-(4-(2,6-dimethoxyphenyl)-5-(thiazol-4-yl)-4H-1,2,4-triazol-3-yl)ethanesulfonamide] | 26
17 | COc1cccc(OC)c1-n1c(NS(=O)(=O)[C@@H](C)[C@H](O)c2ncc(C)cn2)nnc1-c1cc(C)n[nH]1 [Example 349.0, (1R,2S)-N-(4-(2,6-Dimethoxyphenyl)-5-(3-methyl-1H-pyrazol-5-yl)-4H-1,2,4-triazol-3-yl)-1-hydroxy-1-(5-methylpyrimidin-2-yl)propane-2-sulfonamide] | 2.1
18 | O=S(=O)(CCc1ccc(Cl)cc1)Nc1nnc(-c2cccs2)n1-c1ccccc1OC(F)F [Example 240.0, 2-(4-chlorophenyl)-N-(4-(2-(difluoromethoxy)phenyl)-5-(thiophen-2-yl)-4H-1,2,4-triazol-3-yl)ethanesulfonamide] | 1310
19 | (1R,2S)-N-(4-(2,6-dimethoxyphenyl)-5-(1-methyl-1H-pyrazol-3-yl)-4H-1,2,4-triazol-3-yl)-1-(5-fluoro-2-pyridinyl)-1-hydroxy-2-propanesulfonamide and (1S,2R)-N-(4-(2,6-dimethoxyphenyl)-5-(1-methyl-1H-pyrazol-3-yl)-4H-1,2,4-triazol-3-yl)-1-(5-fluoro-2-pyridinyl)-1-hydroxy-2-propanesulfonamide [Example 25.0] | 15
20 | COc1cccc(OC)c1-n1c(NS(=O)(=O)CCc2ccc(F)cc2Br)nnc1-c1nccs1 [Example 140.0, 2-(2-bromo-4-fluorophenyl)-N-(4-(2,6-dimethoxyphenyl)-5-(thiazol-2-yl)-4H-1,2,4-triazol-3-yl)ethanesulfonamide] | 24.5
21 | COc1cccc(OC)c1-n1c(NS(=O)(=O)[C@@H](C)[C@H](OC)c2ncc(C)cn2)nnc1-c1cnccn1 [Example 337.0, (1R,2S)-N-(4-(2,6-dimethoxyphenyl)-5-(2-pyrazinyl)-4H-1,2,4-triazol-3-yl)-1-methoxy-1-(5-methyl-2-pyrimidinyl)-2-propanesulfonamide] | 6.8
22 | COc1cccc(OC)c1-n1c(NS(=O)(=O)[C@@H](C)[C@H](C)c2ncc(Cl)cn2)nnc1-c1noc2c1CCCC2 [Example 441.0, (2S,3R)-3-(5-chloropyrimidin-2-yl)-N-(4-(2,6-dimethoxyphenyl)-5-(4,5,6,7-tetrahydrobenzo[d]isoxazol-3-yl)-4H-1,2,4-triazol-3-yl)butane-2-sulfonamide] | 0.33
23 | O=S(=O)(CCc1ccc(Cl)cc1)Nc1nnc(-c2ccc(F)s2)n1-c1ccccc1OC(F)F [Example 244.0, 2-(4-chlorophenyl)-N-(4-(2-(difluoromethoxy)phenyl)-5-(5-fluoro-2-thiophenyl)-4H-1,2,4-triazol-3-yl)ethanesulfonamide] | 21
24 | COc1cccc(OC)c1-n1c(NS(=O)(=O)[C@@H](C)[C@H](OC)c2ncc(C)cn2)nnc1-c1ccc(Cl)s1 [Example 334.0, (1R,2S)-N-(5-(5-chloro-2-thiophenyl)-4-(2,6-dimethoxyphenyl)-4H-1,2,4-triazol-3-yl)-1-methoxy-1-(5-methyl-2-pyrimidinyl)-2-propanesulfonamide] | 0.52
